Earlier results, collected in patent US7662371B2, “Composition for lowering the concentration of intestinal pathogenic peptides” (Neurozym Biotech AS, priority 2001, dated 2010).

Details: oral treatment, regressive-onset autism

CN[C@H](CC(C)C)C(=O)N[C@H]1C(=O)N[C@@H](CC(N)=O)C(=O)N[C@H]2C(=O)N[C@H]3C(=O)N[C@H](C(=O)N[C@H](C(=O)O)c4cc(O)cc(O)c4-c4cc3ccc4O)[C@H](O)c3ccc(c(Cl)c3)Oc3cc2cc(c3O[C@@H]2O[C@H](CO)[C@@H](O)[C@H](O)[C@H]2O[C@H]2C[C@](C)(N)[C@H](O)[C@H](C)O2)Oc2ccc(cc2Cl)[C@H]1O [vancomycin]
improvement, number of children: 8 of 10
